Measurements reported in BigSolDB 2.1.

Structure (SMILES): C[C@@H]1CC[C@@]2(OC1)O[C@H]1C[C@H]3[C@@H]4CC=C5C[C@@H](O)CC[C@]5(C)[C@H]4CC[C@]3(C)[C@H]1[C@@H]2C
- solubility (mole fraction) (in n-heptanol, 302.26 K): 0.0088
- solubility (mole fraction) (in n-heptanol, 305.45 K): 0.00959
- solubility (mole fraction) (in n-heptanol, 307.65 K): 0.0101
- solubility (mole fraction) (in n-heptanol, 309.9 K): 0.0106
- solubility (mole fraction) (in n-heptanol, 312.12 K): 0.0112
- solubility (mole fraction) (in n-heptanol, 312.46 K): 0.0119
- solubility (mole fraction) (in n-heptanol, 314.11 K): 0.0126
- solubility (mole fraction) (in n-heptanol, 315.8 K): 0.0133
- solubility (mole fraction) (in n-heptanol, 317.75 K): 0.014
- solubility (mole fraction) (in n-heptanol, 320.05 K): 0.0147
- solubility (mole fraction) (in n-heptanol, 321.07 K): 0.0155
- solubility (mole fraction) (in n-heptanol, 323.22 K): 0.0163
- solubility (mole fraction) (in n-heptanol, 324.65 K): 0.0171
- solubility (mole fraction) (in n-heptanol, 325.35 K): 0.0179
- solubility (mole fraction) (in n-heptanol, 327.45 K): 0.0188
- solubility (mole fraction) (in n-heptanol, 328.51 K): 0.0196
- solubility (mole fraction) (in n-heptanol, 329.6 K): 0.0202
- solubility (mole fraction) (in n-hexanol, 300.15 K): 0.00806
- solubility (mole fraction) (in n-hexanol, 303.35 K): 0.00875
- solubility (mole fraction) (in n-hexanol, 305.45 K): 0.00905
- solubility (mole fraction) (in n-hexanol, 308.15 K): 0.00957
- solubility (mole fraction) (in n-hexanol, 309.9 K): 0.0101
- solubility (mole fraction) (in n-hexanol, 312.12 K): 0.0107
- solubility (mole fraction) (in n-hexanol, 312.46 K): 0.0113
- solubility (mole fraction) (in n-hexanol, 313.79 K): 0.0119
- solubility (mole fraction) (in n-hexanol, 315.8 K): 0.0126
- solubility (mole fraction) (in n-hexanol, 317.35 K): 0.0132
- solubility (mole fraction) (in n-hexanol, 319.26 K): 0.0139
- solubility (mole fraction) (in n-hexanol, 320.77 K): 0.0147
- solubility (mole fraction) (in n-hexanol, 321.95 K): 0.0154
- solubility (mole fraction) (in n-hexanol, 323.95 K): 0.0161
- solubility (mole fraction) (in n-hexanol, 325.05 K): 0.0167
- solubility (mole fraction) (in n-hexanol, 326.2 K): 0.0174
- solubility (mole fraction) (in n-hexanol, 327.95 K): 0.0181
- solubility (mole fraction) (in n-hexanol, 329.6 K): 0.0188
